# Laboratory results taken from patent US20030083304A1, “CCAAT/enhancer binding protein-beta (C/EBPbeta) is a molecular target for cancer treatment” (priority 2001, published 2003).
# Marks after values point to notes of the source that are not given here.
# Legend:
# [1] = test system: epidermal keratinocytes; assay: Apoptotic epidermal keratinocytes in DMBA-treated mice; format: in vivo, mouse; conditions: for Apoptotic Keratinocytes (%): single application 400 nmol DMBA
# From the text: The lack of tumor development in carcinogen treated C/EPBβ-null mice could be due to apoptosis of C/EBPβ-deficient keratinoyctes that have acquired oncogenic Ha-ras lesions. To examine this possibility we treated mice with DMBA and scored the number of apoptotic keratinocytes in C/EBPβ-null and wild type epidermis using the cytological parameters described in the Methods. […] Similar fold increases in apoptotic cells were observed using TUNEL staining (data not shown). To determine if C/EBPβ-null mice also display increased apoptosis in response to UVB irradiation, a potent inducer of apoptosis and DNA damage, wild type and C/EBPβ-null mice were irradiated with UVB doses of 50, 100 and 200 mJ/cm^2. While all UVB doses increased the number of apoptotic epidermal keratinocytes, there was no difference between wild type and mutant mice (data not shown).
# [2] = test system: mouse skin; conditions: in vivo
# [3] = test system: C/EBPβ; assay: Ha-ras (12V)-induced activation of C/EBPβ in mouse keratinocytes; format: cell-based
# From the text: A MAPK site has been identified in C/EBPβ. Replacing Thr-188 with an Ala-188 within this site completely blocks Ras-induced activation of C/EBPβ. […] Thus, the MAPK site in C/EBPβ, which is conserved in mouse, rat, bovine and human, is important in Ras signaling. Accordingly, useful compounds of the present invention are MAPK inhibitors such as PD98059, or compounds that bind the MAPK site in C/EBPβ and thus block oncogenic ras-induced activation.
structure (smiles),measurement,setting,value
"Cc1c2ccccc2c(C)c2c1ccc1ccccc12 [DMBA, 7,12-dimethylbenz[a]anthracene]","increase in the number of basal apoptotic keratinocytes, C/EBPβ-null vs wild type mice",[1]; DMBA-treated,17 fold
same,Apoptotic Keratinocytes (%),[1]; C/EBPβ −/− mice,1.73 ± 0.14^ab %
same,Apoptotic Keratinocytes (%),[1]; wild type mice,0.10 ± 0.02^a %
same,average papillomas/mouse,[2]; 129/Sv x C57BL/6 (wild type),12 papillomas/mouse
same,papilloma incidence,[2],All of the wild-type mice developed papillomas
same,resistance to carcinogenesis,[2],completely resistant
COc1cccc(-c2cc(=O)c3ccccc3o2)c1N [PD98059],Ha-ras (12V)-induced activation of C/EBPβ,[3],partially blocks
ClC1(Cl)C2(Cl)C3(Cl)C4(Cl)C(Cl)(Cl)C5(Cl)C3(Cl)C1(Cl)C5(Cl)C24Cl (centres unmarked) [mirex],tumor development,[2],refractory
